Results published in patent publication US5126057A, “Disinfecting with N,N'-dihaloimidazolidin-4-ones” (Auburn Research Foundation, priority 1991, dated 1992).
Where two headings read alike, the source gives them in different places.

Tests used:
[1] = system: Pseudomonas aeruginosa (ATCC 27853); test: Bactericidal efficacy, percent inactivation of P. aeruginosa; assay type: cell-based; details: pH 7.0, 22° C., DFW
Protocol: The halogenated imidazolidin-4-one derivatives prepared as in examples 3, 5, and 6 (Compounds 1, 5, and 3, respectively) were tested as bactericides against the microorganisms Staphylococcus aureus (ATCC25923) and Pseudomonas aeruginosa (ATCC 27853) in demand-free water (DFW) as a function of pH and temperature and in a synthetic-demand water (SDW) at pH 9.5 and 4° C. The demand-free and synthetic-demand waters were prepared as described in examples 7 and 12, respectively.
For the bactericidal efficacy tests 50 milliliters of buffered DFW or SDW were placed in a 125 milliliter flask which was then inoculated with the organism to be tested such that the final density of the organism was about 1×10^6 cfu/ml (colony forming units per milliliter). The inoculated solution was allowed to equilibrate at the test temperature by immersion in a thermostated water bath for 15 minutes with constant stirring. Then an appropriate amount of an aqueous solution containing the test halogenated imidazolidin-4-one compound maintained at the same test temperature was added to the inoculated solution to bring the total concentration of potential positive halogen (Cl^+ or Cl^+ /Br^+) in the mixture to a predetermined level (10 parts per million and 5 parts per million Cl^+ from compounds 1 and 3; the molar equivalent in Cl^+ /Br^+ from Compound 5). 1 milliliter aliquots were removed from the test mixture at various predetermined times, and the active halogen was quenched by 1 milliliter portions of sterile 0.02 Normal sodium thiosulfate. Serial dilutions were made into sterile saline, and three 25 microliter aliquots of each of the resulting dilutions were applied to the dried surface of a Petri dish containing tryptic soy and nutrient agars for plating S. aureus and P. aeruginosa, respectively. After 48 hours at 37° C. the three replicates for each dilution were counted and averaged. This average was used to compute the cfu/ml for that particular aliquot. Inactivation of the organism was considered to be at least 99.9999 percent when no colonies were detected in the thiosulfate quenched aliquots.

[2] = system: Staphylococcus aureus (ATCC 25923); test: Disinfection of hard surfaces (modified AOAC Use-Dilution Method, stainless steel cylinders); assay type: cell-based; details: for bacterial growth after contact (in words): 25, 50, 100, 200 ppm positive chlorine (molar equivalents for Cpd 5), pH 7.0, 10 minutes contact; for minimal effective concentration: Staphylococcus aureus, ATCC25923, 10 min, 10 minutes contact, pH 7.0, read-out: effective hard surface disinfectant concentration
Protocol: The efficacies of compounds 1 and 5 as hard surface disinfectants were assessed by using a modification of the AOAC Use-Dilution Method as described in "Official Methods of Analysis of the Association of Official Analytical Chemists", ed. W. Horwitz, A.O.A.C., Washington, D.C., 1989, pp. 58-59. Small stainless steel cylinders (Penicylinders from Fisher Scientific) were cleaned with 1 Normal sodium hydroxide solution, sterilized in 0.1 percent asparagine in an autoclave, and cooled to ambient temperature. The cylinders were then inoculated with Staphylococcus aureus (ATCC 25923) by placing them in a 24 hour old nutrient broth culture of the organism for 15 minutes. The cylinders were aseptically removed from the broth, placed in a sterile petri dish upon filter paper for draining, and dried at 37° C. in an incubator for 60 minutes.
The halogenated imidazolidin-4-ones were dissolved in demand-free water buffered at pH 7.0 at concentrations of 25, 50, 100, and 200 parts per million of potential ionizable positive chlorine for Compound 1 (or molar equivalents of total potential ionizable positive halogen for Compound 5), and 2 milliliter aliquots of the solutions were added to each of a series of sterile culture tubes. Control solutions of pH 7.0 demand-free water were also added to a series of tubes. At least 10 tubes at each concentration of disinfectant were employed. Then an inoculated metal cylinder was added to each tube containing disinfectant and each control tube at exactly 30 second intervals. After exactly 10 minutes contact time the cylinders were removed from the tubes at 30 second intervals in the same order as was used for their addition, i.e. the contact time was 10 minutes for all cylinders. Each metal cylinder was placed into a culture tube containing 3 milliliters of nutrient broth and 0.01 normal sodium thiosulfate to quench disinfectant action. All tubes were examined for bacterial growth (inspected for the presence or absence of turbidity) following 48 hours of incubation at 37° C.

[3] = Stability in demand-free water exposed to direct sunlight; assay type: physicochemical; details: pH 7; for remaining at 3 h / remaining at 5 h / remaining at 10 h: demand-free water, direct sunlight
Protocol: The stabilities of compounds 1,5, and free chlorine from calcium hypochlorite (Compound 2) in water exposed to direct sunlight were determined. Each compound at the 10 milligrams per liter total chlorine concentration level (or at the molar equivalent for total halogen for Compound 5) was dissolved in 85 milliliters of demand-free water buffered at pH 7.0 in separate 100 milliliter beakers which were placed in a temperature-controlled water bath (22°-24° C.), and the bath containing the solutions was placed on the roof of the chemistry building at Auburn University exposed to direct sunlight during August 1988. Total potential positive halogen assays were made periodically on aliquots withdrawn over a 10 hour period using the standard iodometric titration technique.

remaining at 3 h [3] | remaining at 5 h [3] | remaining at 10 h [3] | SMILES | killing at 5 ppm ([1]; ATCC27853, 5 min, 5 minutes) | killing at 5 ppm ([1]; ATCC27853, 10 min, 10 minutes) | bacterial growth after contact (in words) [2] | minimal effective concentration ([2]; potential ionizable positive chlorine) | stability (in words) [3] | minimal effective concentration ([2]; total potential positive halogen)
84.9% | 74.8% | 51.2% | CC1(C)C(=O)N(Cl)C(C)(C)N1Cl [Compound 1, 1,3-dichloro-2,2,5,5-tetramethylimidazolidin-4-one] | > 100% | > 100% | none of the tubes containing compounds 1 or 5 at any of the concentration levels exhibited bacterial growth | ≤ 25 µg/mL | much more stable than free chlorine | 
60.5% | 45.7% | 14.9% | CC1(C)C(=O)N(Cl)C(C)(C)N1Br [Compound 5, 1-bromo-3-chloro-2,2,5,5-tetramethylimidazolidin-4-one] | > 100% | > 100% | none of the tubes containing compounds 1 or 5 at any of the concentration levels exhibited bacterial growth |  | less stable than Compound 1, but significantly more stable than free chlorine | ≤ 40.7 µg/mL
